The source made the active and inactive calls. The rule behind the calls is not given here.
Legend:
HCT-116 [1] = assay: Antiproliferative activity against human HCT116 cells assessed as growth inhibition after 24 to 72 hrs by MTS assay; format: functional
MCF7 = assay: Antiproliferative activity against human MCF7 cells assessed as growth inhibition after 24 to 72 hrs by MTS assay; format: functional
MDA-MB-231 = assay: Antiproliferative activity against human MDA-MB-231 cells assessed as growth inhibition after 24 to 72 hrs by MTS assay; format: functional
[2] = Antiproliferative activity against NHDF assessed as growth inhibition after 24 to 72 hrs by MTS assay; format: cell-based; conditions: human, NHDF cells
[3] = Antiproliferative activity against NHLF assessed as growth inhibition after 24 to 72 hrs by MTS assay; conditions: human, NHLF cells
[4] = Antiproliferative activity against HUVEC assessed as growth inhibition after 24 to 72 hrs by MTS assay; format: cell-based; conditions: human, HUVEC cells
[5] = Antiproliferative activity against HMEC assessed as growth inhibition after 24 to 72 hrs by MTS assay; format: cell-based; conditions: human, HMEC cells
Mus musculus [6] = assay: Toxicity in mouse assessed as death at 0.03 to 3 mg/kg, iv once every 4 days for 3 injections; format: organism-based; design: dose 0.03-3 mg/kg, route intravenous; conditions: in vivo, 96 h
Mus musculus [7] = assay: Toxicity in mouse assessed as body weight loss at 0.03 to 3 mg/kg, iv once every 4 days for 3 injections; format: organism-based; design: dose 0.03-3 mg/kg, route intravenous; conditions: in vivo, 96 h
HCT-116 [8] = assay: Antitumor activity against human HCT116 cells xenografted in NCr-nu/nu mouse assessed as tumor weight reduction at 1.5 to 3 mg/kg, iv once every 4 days for 3 injections after 16 days of tumor cell transplantation; format: functional, organism-based
HCT-116 [9] = assay: Antitumor activity against human HCT116 cells xenografted in NCr-nu/nu mouse assessed as tumor weight reduction at 6 mg/kg, iv once every 4 days for 3 injections after 16 days of tumor cell transplantation; format: functional
[10] = Therapeutic index, ratio of GI50 for human HCT116 cells to GI50 for NHDF; format: cell-based, HCT-116; conditions: HCT116 cells and NHDF cells, read-out: RatioGI50
[11] = Therapeutic index, ratio of GI50 for human HCT116 cells to GI50 for NHLF; format: cell-based, HCT-116; conditions: HCT116 cells and NHLF cells, read-out: RatioGI50
[12] = Therapeutic index, ratio of GI50 for human HCT116 cells to GI50 for HMEC; format: cell-based, HCT-116; conditions: HCT116 cells and HMEC cells, read-out: RatioGI50
[13] = Therapeutic index, ratio of GI50 for human HCT116 cells to GI50 for HUVEC; format: cell-based, HCT-116; conditions: HCT116 cells and HUVEC cells, read-out: RatioGI50
[14] = Half life in mouse serum; format: ADME
Mus musculus [15] = assay: Toxicity in mouse assessed as body weight loss at 3 mg/kg, iv once every 4 days for 3 injections; format: organism-based; design: dose 3 mg/kg, route intravenous; conditions: in vivo, 96 h
[16] = Toxicity in mouse assessed as tolerated dose compound treated once daily for 5 consecutive days; format: organism-based; conditions: in vivo
Mus musculus [17] = assay: Toxicity in mouse assessed as body weight loss at 1 mg/kg, iv once every 4 days for 3 injections; format: organism-based; design: dose 1 mg/kg, route intravenous; conditions: in vivo, 96 h
Mus musculus [18] = assay: Toxicity in mouse assessed as death at 0.5 mg/kg, iv led to the euthanization of mouse on day 9; format: organism-based, NCr; design: dose 0.5 mg/kg, route intravenous; conditions: in vivo
Mus musculus [19] = assay: Toxicity in mouse assessed as body weight loss at 0.5 mg/kg, iv led to the euthanization of mouse on day 9; format: organism-based; design: dose 0.5 mg/kg, route intravenous; conditions: in vivo
Mus musculus [20] = assay: Toxicity in mouse assessed as death at >= 1.5 mg/kg, iv compound treated once daily for 5 consecutive days; format: organism-based; design: dose 1.5 mg/kg, route intravenous; conditions: in vivo
HCT-116 [21] = assay: Antitumor activity against human HCT116 cells xenografted in NCr-nu/nu mouse assessed as tumor inhibition rate measured on day 41 at 6 mg/kg, iv once every 4 days for 3 injections after 16 days of tumor cell transplantation; format: functional
PC-3 = assay: Antitumor activity against human PC3 cells xenografted in NCr-nu/nu mouse assessed as tumor weight reduction measured on day 22 at 1 mg/kg, iv once daily for 5 injections; format: functional; conditions: PC-3, 528 h
[22] = Plasma concentration in mouse at 6 mg/kg, iv after 30 mins; format: ADME, organism-based; design: dose 6 mg/kg, route intravenous
HCT-116 [23] = assay: Antitumor activity against human HCT116 cells xenografted in NCr-nu/nu mouse assessed as tumor inhibition rate measured on day 41and 44 at 15 mg/kg, iv once daily for 5 injections after 16 days of tumor cell transplantation; format: functional; conditions: HCT-116, 384 h
P388 = assay: Antiproliferative activity against mouse P388 cells assessed as growth inhibition after 24 to 72 hrs by MTS assay; format: functional
A549 = assay: Antiproliferative activity against human A549 cells assessed as growth inhibition after 24 to 72 hrs by MTS assay; format: functional
[24] = Plasma concentration in mouse at 6 mg/kg, iv upto 4 hrs; format: ADME, organism-based; design: dose 6 mg/kg, route intravenous

| SMILES | GI50 (HCT-116 [1]) [nM] | GI50 (MCF7) [nM] | GI50 (MDA-MB-231) [nM] | GI50 [2] [nM] | GI50 [3] [nM] | GI50 [4] [nM] | GI50 [5] [nM] | Activity (Mus musculus [6]) | Activity (HCT-116 [8]) | selectivity ratio [10] | selectivity ratio [11] | selectivity ratio [12] | selectivity ratio [13] | half-life [14] [h] | also measured |
| --- | --- | --- | --- | --- | --- | --- | --- | --- | --- | --- | --- | --- | --- | --- | --- |
| CC(=O)O[C@@H](C)/C=C\C(=O)N[C@@H]1C[C@H](C)[C@H](C/C=C(C)/C=C/[C@H]2OC(C)(C)C[C@@]3(CO3)[C@@H]2O)O[C@@H]1C | 0.07 | 0.02 | 0.07 | 0.44 | 0.91 | 0.06 | 0.11 | Non-toxic | inactive | 6 | 2.7 | 1.6 | 1 | 2 | Activity (Mus musculus [7]): Non-toxic; inhibition in vivo at 6 mg/kg (HCT-116 [9]): 24% |
| CC(/C=C/[C@H]1OC(C)(C)C[C@@]2(CO2)[C@@H]1O)=C\C[C@@H]1O[C@H](C)[C@H](NC(=O)/C=C\[C@H](C)OC(=O)N2CCOCC2)C[C@@H]1C |  |  |  |  |  |  |  | Non-toxic | inactive |  |  |  |  | 13 | Activity (Mus musculus [15]): 11%; MTD at 5 days [16]: 0.5 mg/kg; Activity (Mus musculus [17]): 10%; Activity (Mus musculus [18]): Toxic; Activity (Mus musculus [19]): 6%; Activity (Mus musculus [20]): Toxic; inhibition in vivo at 6 mg/kg (HCT-116 [21]): 41%; inhibition in vivo at 1 mg/kg (PC-3): 26%; concentration at 0.5 h [22]: < 10 ng/mL |
| CC(=O)O[C@H]1C(=O)[C@@]2(C)[C@H]([C@H](OC(=O)c3ccccc3)[C@]3(O)C[C@H](OC(=O)[C@H](O)[C@@H](NC(=O)c4ccccc4)c4ccccc4)C(C)=C1C3(C)C)[C@]1(OC(C)=O)CO[C@@H]1C[C@@H]2O [PACLITAXEL] |  |  |  |  |  |  |  |  |  |  |  |  |  |  | inhibition in vivo at 15 mg/kg (HCT-116 [23]): 81% |
| COc1cccc2c1C(=O)c1c(O)c3c(c(O)c1C2=O)C[C@@](O)(C(=O)CO)C[C@@H]3O[C@H]1C[C@H](N)[C@H](O)[C@H](C)O1 [DOXORUBICIN] | 70 |  |  | 462 | 223 | 109 | 276 |  |  |  |  |  |  |  |  |
| CC(=O)O[C@@H](C)/C=C\C(=O)N[C@@H]1C[C@H](C)[C@H](C/C=C(C)/C=C/[C@H]2O[C@](C)(O)C[C@@]3(CO3)[C@@H]2O)O[C@@H]1C | 1 | 1 |  |  |  |  |  |  |  |  |  |  |  |  | GI50 (P388): 1 nM; GI50 (A549): 1 nM |
| CO[C@@H]1[C@@H](/C=C/C(C)=C/C[C@@H]2O[C@H](C)[C@H](NC(=O)/C=C\[C@H](C)OC(=O)N3CCOCC3)C[C@@H]2C)OC(C)(C)C[C@@]12CO2 | 1.4 | 0.4 | 1.1 | 39 | 12 | 4 | 9 |  |  | 15 | 4.6 | 3.5 | 1.5 |  | concentration at 4 h [24]: < 10 ng/mL |

From ChEMBL document CHEMBL3217663, “Evaluation of FR901464 analogues in vitro and in vivo” (Medchemcomm, 2011)
